We go through ten molecules from patent US11555820B2, “Nanohoop compounds for use in biotechnology and methods of making and using the same” (University of Oregon, priority 2017, dated 2023).

Series [1] is described as follows: Photophysical properties of meta-substituted nanohoops (absorption, emission, extinction coefficient, quantum yield). It is filed as physicochemical. Particulars: for εAmax × ΦAmax (brightness) / εH→L: [n]mCPP; for Emission / Max Abs / ΦAmax (fluorescence quantum yield) / εAmax: dichloromethane; for ΦAmax (fluorescence quantum yield): room temperature; for εAmax: extinction coefficient at the absorbance maximum; for εH→L: extinction coefficient of the HOMO→LUMO transition; for CPP ε × Φ (brightness): all-para [n]CPP with the same number of rings. On the procedure: In the following examples, all glassware was flame dried and cooled under an inert atmosphere of nitrogen unless otherwise noted. Moisture sensitive reactions were carried out under nitrogen atmosphere using Schlenk and standard syringe/septa techniques. Tetrahydrofuran, dichloromethane, dimethylformamide and 1,4-dioxane were dried by filtration through alumina according to the methods describes by Grubbs. Silica column chromatography was conducted with Zeochem Zeoprep 60 Eco 40-63 μm silica gel. Automated flash chromatography was performed using a Biotage Isolera One. Recycling gel permeation chromatography (GPC) was performed using a Japan Analytical Industry LC-9101 preparative HPLC with JAIGEL-1H/JAIGEL-2H columns in series using CHCl3. Thin Layer Chromatography (TLC) was performed using Sorbent Technologies Silica Gel XHT TLC plates. Developed plates were visualized using UV light at wavelengths of 254 and 365 nm. ^1H NMR spectra were recorded at 500 MHz or 600 MHz on a Bruker Advance-II-HD NMR spectrometer. ^13C NMR spectra were recorded 150 MHz on a Bruker Advance-III-HD NMR spectrometer. All ^1H NMR spectra were taken in CDCl3 (referenced to TMS, δ 0.00 ppm) or DMSO-d6 (referenced to residual DMSO, δ 2.50 ppm). All ^13C NMR spectra were taken in CDCl3 (referenced to chloroform, δ 77.16 ppm) or DMSO-d6 (referenced to DMSO, δ 39.52 ppm). Absorbance and fluorescence spectra were obtained in a 1 cm Quartz cuvette with dichloromethane using an Agilent Cary 100 UV-Vis spectrometer and a Horiba Jobin Yvon Fluoromax-4 Fluorimeter. Fluorescent quantum yield was measured in dichloromethane at room temperature using a Hamamatsu absolute PL quantum yield measurement system. Electrochemical experiments were performed using a Biologic SP-50 potentiostat with a Ag wire reference electrode, Pt wire counter electrode, and glassy carbon working electrode under nitrogen atmosphere in 100 mM solutions of Bu4NPF6 in DCM with ferrocene as a reference. All reagents were obtained commercially unless otherwise noted. Compounds para-benzoquinone mono-methyl ketal, compound A, compound B, PPh3 Pd Gen III, and SPhos Pd Gen 1115 were prepared according to literature procedure.
In this example, the photophysical properties of nanohoop compound embodiments comprising meta-substitution (wherein the meta-substitution refers to the fact that one of the rings of the nanohoop skeleton is connected to other rings of the nanohoop skeleton via bonds that are meta-substituted relative to each other) was evaluated. It was determined that disrupting the conjugation of the nanohoop allows the HOMO→LUMO absorption and “turns on” the fluorescence in the smaller sizes (e.g., 6-membered and 5-membered nanohoops). The absorption and emission data as well as extinction coefficients and quantum yields were collected. […] Two absorption transitions can be seen in for the smaller sizes, but the second transition blue-shifts and overlaps with the absorption at 328 nm for [10]- and [12]mCPP. The extinction coefficient of the higher energy transition is larger than that of the lower energy transition in all cases (Table 10). […] Graphs showing the extinction coefficient determination of [5]mCPP at the absorbance maxima and HOMO→LUMO transition are provided in FIGS. 10A and 10B, respectively. Graphs showing the extinction coefficient determination of [6]mCPP at the absorbance maxima and HOMO→LUMO transition are provided in FIGS. 11A and 11B, respectively. Graphs showing the extinction coefficient determination of [7]mCPP at the absorbance maxima and HOMO→LUMO transition are provided in FIGS. 12A and 12B, respectively. Graphs showing the extinction coefficient determination of [8]mCPP at the absorbance maxima and HOMO→LUMO transition are provided in FIGS. 13A and 13B, respectively. Graphs showing the extinction coefficient determination of [10]mCPP and [12]mCPP at the absorbance maxima are provided in FIGS. 14 and 15, respectively. […]

For series [2] the following is noted: all-para [n]CPP, n≤7; cited from earlier work.
Series [3] has as its system HeLa cells. The series can be described thus: Colorimetric CCK-8 viability assay of HeLa cells. It is filed as cell-based. Particulars: [12]CPP 0.25-1 uM, [8]CPP 0.5-2 uM, 5 wt percent Pluronic F108 in DMEM. On the procedure: HeLa cells were treated with varying concentrations of [8]CPP and [12]CPP in the presence of 5 wt percent Pluronic F108 in DMEM, and their viability was measured using a colorimetric CCK-8 assay (purchased from Dojindo and performed following the assay instructions). Briefly, the cells were treated with the nanohoop compound and the tetrazolium salt WST-8 at each concentration for 2 hours at 37 degrees Celsius, and the optical density of the cells was subsequently measured at 450 nm. The viability of cells treated with the [12]CPP and [8]CPP compounds is illustrated in FIGS. 1 and 2, respectively.
In this example, HeLa cells were treated with the disulfonated[8]CPP nanohoop Compound 1 at concentrations of 5 uM, 10 uM, 25 uM, 50 uM and 100 uM and their viability was measured using a standard colorimetric CCK-8 assay, as described above for Example 1. The percentage of living cells remaining after exposure to various concentrations of Compound 1 is illustrated in the graph shown in FIG. 3.

With `O[C@]12C=C[C@](O)(CC1)c1ccc(cc1)-c1ccc(cc1)[C@]1(O)C=C[C@@H](C=C1)c1ccc(cc1)-c1cccc(c1)-c1ccc2cc1` [[7]mCPP], the “H→L Absorbance” value in series [1] (HOMO→LUMO transition) came to 394 nm. Further, in series [1], the “εAmax × ΦAmax (brightness)” value was 2.3 × 10^4, the Emission is listed as 491 nm, the “Max Abs” value is 328 nm and the “ΦAmax (fluorescence quantum yield)” value was 0.450. In series [1], the εAmax is reported as 5.1 × 10^4 ± 0.09 M^−1cm^−1 and the εH→L is 9.9 × 10^3 ± 0.08 M^−1cm^−1.
On to `c1cc2cc(c1)-c1ccc(cc1)-c1ccc(cc1)-c1ccc(cc1)-c1ccc(cc1)-c1ccc(cc1)-c1ccc(cc1)-c1ccc(cc1)-c1ccc(cc1)-c1ccc-2cc1` [[10]mCPP], for which, in series [1], the “εAmax × ΦAmax (brightness)” value is reported as 5.2 × 10^4, the Emission was 456 nm, the “Max Abs” value came to 328 nm and the “ΦAmax (fluorescence quantum yield)” value was 0.726. In addition, in series [1], the εAmax is on record as 7.1 × 10^4 ± 0.2 M^−1cm^−1. Moreover, in series [1] (compared with DAPI and Rhodamine 110), the “overall brightness versus commercial fluorophores (in words)” value was “brighter than many commercial fluorophores”.
On to `c1cc2ccc1-c1ccc(cc1)-c1ccc(cc1)-c1ccc(cc1)-c1ccc(cc1)-c1ccc(cc1)-c1ccc-2cc1` [[7]CPP, reference compound], for which the “CPP ε × Φ (brightness)” value in series [1] was 4.8 × 10^2. In addition, the “fluorescence of para-substituted CPP (in words)” value (“fluorescence … (in words)” for short) in series [2] was “only weak fluorescence”.
With `c1cc2ccc1-c1ccc(cc1)-c1ccc(cc1)-c1ccc(cc1)-c1ccc(cc1)-c1ccc(cc1)-c1ccc(cc1)-c1ccc(cc1)-c1ccc(cc1)-c1ccc-2cc1` [[10]CPP, reference compound], the “CPP ε × Φ (brightness)” value in series [1] was 8.5 × 10^4.
As to `CO[C@]12C=C[C@](O)(C=C1)c1ccc(cc1)-c1cccc(c1)-c1ccc(cc1)[C@]1(O)C=C[C@@](OC)(C=C1)C1C=CC(=CC1)[C@]1(O)C=C[C@@](O)(CC1)[C@H]1C=CC2=CC1` [[8]mCPP], the “H→L Absorbance” value in series [1] (HOMO→LUMO transition) was 376 nm. In addition, in series [1], the “εAmax × ΦAmax (brightness)” value was 3.7 × 10^4, the Emission is recorded as 484 nm, the “Max Abs” value is 326 nm and the “ΦAmax (fluorescence quantum yield)” value was determined as 0.595. For the same molecule, in series [1], the εAmax is 6.2 × 10^4 ± 0.9 M^−1cm^−1 and the εH→L is 1.4 × 10^4 ± 0.1 M^−1cm^−1.
Consider `O[C@]12C=C[C@](O)(C=C1)c1ccc(cc1)[C@]1(O)C=C[C@@](O)(C=C1)c1ccc(cc1)-c1cccc(c1)[C@@H]1C=CC2=CC1` [[6]mCPP], for which the “H→L Absorbance” value in series [1] (HOMO→LUMO transition) was determined as 410 nm. In addition, in series [1], the “εAmax × ΦAmax (brightness)” value is given as 1.2 × 10^4, the Emission came to 510 nm, the “Max Abs” value is 328 nm and the “ΦAmax (fluorescence quantum yield)” value came to 0.224. In series [1], the εAmax was 5.4 × 10^4 ± 0.3 M^−1cm^−1 and the εH→L is reported as 9.4 × 10^3 ± 0.5 M^−1cm^−1.
Regarding `c1cc2ccc1=c1ccc(cc1)=c1ccc(cc1)=c1ccc(cc1)=c1ccc(cc1)=c1ccc(cc1)=c1ccc(cc1)=c1ccc=2cc1` [[8]CPP, reference compound], the “CPP ε × Φ (brightness)” value in series [1] is recorded as 1.0 × 10^4. Moreover, in series [3], the “toxicity to HeLa cells (in words)” value is on record as “not toxic”.
With `c1cc2ccc1=c1ccc(cc1)=c1ccc(cc1)=c1ccc(cc1)=c1ccc(cc1)=c1ccc=2cc1` [[6]CPP, reference compound], the “CPP ε × Φ (brightness)” value in series [1] was 0. Also, the “fluorescence … (in words)” value in series [2] is reported as “no fluorescence”.
Regarding `c1cc2ccc1-c1ccc(cc1)-c1ccc(cc1)-c1ccc(cc1)-c1ccc(cc1)-c1ccc(cc1)-c1ccc(cc1)-c1ccc(cc1)-c1ccc(cc1)-c1ccc(cc1)-c1ccc(cc1)-c1ccc-2cc1` [[12]CPP, reference compound], the “CPP ε × Φ (brightness)” value in series [1] is given as 1.4 × 10^5. Besides, in series [3], the “toxicity to HeLa cells (in words)” value was “not toxic”.
As to `c1cc2ccc1=c1ccc(cc1)=c1ccc(cc1)=c1ccc(cc1)=c1ccc=2cc1` [[5]CPP, reference compound], in series [1] (all-para [5]CPP, HOMO→LUMO transition), the “absorption (extinction coefficient) compared with [5]mCPP” value stood at 450 M⁻¹ cm⁻¹. For the same molecule, the “CPP ε × Φ (brightness)” value in series [1] worked out at 0. Moreover, the “fluorescence … (in words)” value in series [2] is given as “no fluorescence”.
